Source: patent US8030443B2, “Squamous cell carcinoma antigen-derived peptide binding to HLA-A24 molecule” (Kurume University, priority 2005, dated 2011)

Test system: peptide-specific IgG in sera of cancer patients and healthy donors
Experiment: Measurement of anti-peptide IgG in plasma by LUMINEX multiplexed flow cytometric assay
Format: binding, human
Settings: for Total: healthy donors with significant peptide-reactive IgG / donors tested: 10 healthy donors; for Total: healthy donors with significant peptide-reactive IgG / donors tested / Total: cancer patients with significant peptide-reactive IgG / patients tested: significant when fluorescence intensity exceeded 100 at 1/100 dilution; for Total: cancer patients with significant peptide-reactive IgG / patients tested: 71 cancer patients
Outline: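 Plasma diluted 1/100 incubated with peptide-coupled colour-coded beads 2 h at RT, then biotinylated goat anti-human IgG (γ-chain) 1 h and streptavidin-PE 30 min; fluorescence read by multiplexed flow cytometry, >100 counted significant. Specificity checked by three rounds of absorption on corresponding versus irrelevant SCCA peptide.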

[1] = serum of Breast Ca. patient #36, 1:100 dilution
[2] = serum of Breast Ca. patient #37, 1:100 dilution
[3] = serum of Breast Ca. patient #38, 1:100 dilution
[4] = serum of Breast Ca. patient #39, 1:100 dilution
[5] = serum of Breast Ca. patient #40, 1:100 dilution
[6] = serum of Breast Ca. patient #41, 1:100 dilution
[7] = serum of Breast Ca. patient #42, 1:100 dilution
[8] = serum of Breast Ca. patient #43, 1:100 dilution
[9] = serum of Breast Ca. patient #44, 1:100 dilution
[10] = serum of Breast Ca. patient #45, 1:100 dilution
[11] = serum of Colon Ca. patient #66, 1:100 dilution
[12] = serum of Colon Ca. patient #67, 1:100 dilution
[13] = serum of Colon Ca. patient #68, 1:100 dilution
[14] = serum of Colon Ca. patient #69, 1:100 dilution
[15] = serum of Colon Ca. patient #70, 1:100 dilution
[16] = serum of Colon Ca. patient #71, 1:100 dilution
[17] = serum of Gastric Ca. patient #56, 1:100 dilution
[18] = serum of Gastric Ca. patient #57, 1:100 dilution
[19] = serum of Gastric Ca. patient #58, 1:100 dilution
[20] = serum of Gastric Ca. patient #59, 1:100 dilution
[21] = serum of Gastric Ca. patient #60, 1:100 dilution
[22] = serum of Gastric Ca. patient #61, 1:100 dilution
[23] = serum of Gastric Ca. patient #62, 1:100 dilution
[24] = serum of Gastric Ca. patient #63, 1:100 dilution
[25] = serum of Gastric Ca. patient #64, 1:100 dilution
[26] = serum of Gastric Ca. patient #65, 1:100 dilution
[27] = serum of Healthy Donor #1, 1:100 dilution
[28] = serum of Healthy Donor #2, 1:100 dilution
[29] = serum of Healthy Donor #3, 1:100 dilution
[30] = serum of Healthy Donor #4, 1:100 dilution
[31] = serum of Healthy Donor #5, 1:100 dilution
[32] = serum of Healthy Donor #6, 1:100 dilution
[33] = serum of Healthy Donor #7, 1:100 dilution
[34] = serum of Healthy Donor #8, 1:100 dilution
[35] = serum of Healthy Donor #9, 1:100 dilution
[36] = serum of Healthy Donor #10, 1:100 dilution
[37] = serum of Pancreas Ca. patient #46, 1:100 dilution
[38] = serum of Pancreas Ca. patient #47, 1:100 dilution
[39] = serum of Pancreas Ca. patient #48, 1:100 dilution
[40] = serum of Pancreas Ca. patient #49, 1:100 dilution
[41] = serum of Pancreas Ca. patient #50, 1:100 dilution
[42] = serum of Pancreas Ca. patient #51, 1:100 dilution
[43] = serum of Pancreas Ca. patient #52, 1:100 dilution
[44] = serum of Pancreas Ca. patient #53, 1:100 dilution
[45] = serum of Pancreas Ca. patient #54, 1:100 dilution
[46] = serum of Pancreas Ca. patient #55, 1:100 dilution
[47] = serum of Uterine cervical Ca. patient #1, 1:100 dilution
[48] = serum of Uterine cervical Ca. patient #2, 1:100 dilution
[49] = serum of Uterine cervical Ca. patient #3, 1:100 dilution
[50] = serum of Uterine cervical Ca. patient #4, 1:100 dilution
[51] = serum of Uterine cervical Ca. patient #5, 1:100 dilution
[52] = serum of Uterine cervical Ca. patient #6, 1:100 dilution
[53] = serum of Uterine cervical Ca. patient #7, 1:100 dilution
[54] = serum of Uterine cervical Ca. patient #8, 1:100 dilution
[55] = serum of Uterine cervical Ca. patient #9, 1:100 dilution
[56] = serum of Uterine cervical Ca. patient #10, 1:100 dilution
[57] = serum of Uterine cervical Ca. patient #11, 1:100 dilution
[58] = serum of Uterine cervical Ca. patient #12, 1:100 dilution
[59] = serum of Uterine cervical Ca. patient #13, 1:100 dilution
[60] = serum of Uterine cervical Ca. patient #14, 1:100 dilution
[61] = serum of Uterine cervical Ca. patient #15, 1:100 dilution
[62] = serum of Uterine cervical Ca. patient #16, 1:100 dilution
[63] = serum of Uterine cervical Ca. patient #17, 1:100 dilution
[64] = serum of Uterine cervical Ca. patient #18, 1:100 dilution
[65] = serum of Uterine cervical Ca. patient #19, 1:100 dilution
[66] = serum of Uterine cervical Ca. patient #20, 1:100 dilution
[67] = serum of Uterine cervical Ca. patient #21, 1:100 dilution
[68] = serum of Uterine cervical Ca. patient #22, 1:100 dilution
[69] = serum of Uterine cervical Ca. patient #23, 1:100 dilution
[70] = serum of Uterine cervical Ca. patient #24, 1:100 dilution
[71] = serum of Uterine cervical Ca. patient #25, 1:100 dilution
[72] = serum of Uterine cervical Ca. patient #26, 1:100 dilution
[73] = serum of Uterine cervical Ca. patient #27, 1:100 dilution
[74] = serum of Uterine cervical Ca. patient #28, 1:100 dilution
[75] = serum of Uterine cervical Ca. patient #29, 1:100 dilution
[76] = serum of Uterine cervical Ca. patient #30, 1:100 dilution
[77] = serum of Uterine cervical Ca. patient #31, 1:100 dilution
[78] = serum of Uterine cervical Ca. patient #32, 1:100 dilution
[79] = serum of Uterine cervical Ca. patient #33, 1:100 dilution
[80] = serum of Uterine cervical Ca. patient #34, 1:100 dilution
[81] = serum of Uterine cervical Ca. patient #35, 1:100 dilution

KFMFDLFQQF (SCCA 10-19 peptide) [SCCA-derived peptide, position 10-19]
Total: healthy donors with significant peptide-reactive IgG / donors tested: 1/10
Total: cancer patients with significant peptide-reactive IgG / patients tested: 12/71
Fluorescence intesity [1]: 66
Fluorescence intesity [2]: 0
Fluorescence intesity [3]: 27
Fluorescence intesity [4]: 38
Fluorescence intesity [5]: 0
Fluorescence intesity [6]: 201
Fluorescence intesity [7]: 0
Fluorescence intesity [8]: 44
Fluorescence intesity [9]: 18
Fluorescence intesity [10]: 55
Fluorescence intesity [11]: 5
Fluorescence intesity [12]: 79
Fluorescence intesity [13]: 0
Fluorescence intesity [14]: 2
Fluorescence intesity [15]: 17
Fluorescence intesity [16]: 6
Fluorescence intesity [17]: 38
Fluorescence intesity [18]: 11
Fluorescence intesity [19]: 0
Fluorescence intesity [20]: 177
Fluorescence intesity [21]: 4
Fluorescence intesity [22]: 81
Fluorescence intesity [23]: 0
Fluorescence intesity [24]: 0
Fluorescence intesity [25]: 9
Fluorescence intesity [26]: 0
Fluorescence intesity [27]: 0
Fluorescence intesity [28]: 68
Fluorescence intesity [29]: 0
Fluorescence intesity [30]: 0
Fluorescence intesity [31]: 8
Fluorescence intesity [32]: 0
Fluorescence intesity [33]: 0
Fluorescence intesity [34]: 345
Fluorescence intesity [35]: 34
Fluorescence intesity [36]: 0
Fluorescence intesity [37]: 0
Fluorescence intesity [38]: 12
Fluorescence intesity [39]: 206
Fluorescence intesity [40]: 0
Fluorescence intesity [41]: 311
Fluorescence intesity [42]: 0
Fluorescence intesity [43]: 172
Fluorescence intesity [44]: 0
Fluorescence intesity [45]: 11
Fluorescence intesity [46]: 0
Fluorescence intesity [47]: 25
Fluorescence intesity [48]: 21
Fluorescence intesity [49]: 11
Fluorescence intesity [50]: 5
Fluorescence intesity [51]: 14
Fluorescence intesity [52]: 786
Fluorescence intesity [53]: 14
Fluorescence intesity [54]: 38
Fluorescence intesity [55]: 76
Fluorescence intesity [56]: 16
Fluorescence intesity [57]: 21
Fluorescence intesity [58]: 41
Fluorescence intesity [59]: 22
Fluorescence intesity [60]: 22
Fluorescence intesity [61]: 154
Fluorescence intesity [62]: 225
Fluorescence intesity [63]: 50
Fluorescence intesity [64]: 45
Fluorescence intesity [65]: 67
Fluorescence intesity [66]: 107
Fluorescence intesity [67]: 22
Fluorescence intesity [68]: 19
Fluorescence intesity [69]: 78
Fluorescence intesity [70]: 2277
Fluorescence intesity [71]: 19
Fluorescence intesity [72]: 88
Fluorescence intesity [73]: 33
Fluorescence intesity [74]: 228
Fluorescence intesity [75]: 15
Fluorescence intesity [76]: 44
Fluorescence intesity [77]: 107
Fluorescence intesity [78]: 21
Fluorescence intesity [79]: 92
Fluorescence intesity [80]: 17
Fluorescence intesity [81]: 17

LFGEKTYLFL (SCCA 107-116 peptide) [SCCA-derived peptide, position 107-116]
Total: healthy donors with significant peptide-reactive IgG / donors tested: 5/10
Total: cancer patients with significant peptide-reactive IgG / patients tested: 27/71
Specificity of IgG reactive to the peptide (absorption assay: corresponding vs irrelevant SCCA peptide-coated wells (FIG. 3)): confirmed by absorption assay
Fluorescence intesity [1]: 211
Fluorescence intesity [2]: 242
Fluorescence intesity [3]: 146
Fluorescence intesity [4]: 149
Fluorescence intesity [5]: 146
Fluorescence intesity [6]: 269
Fluorescence intesity [7]: 219
Fluorescence intesity [8]: 136
Fluorescence intesity [9]: 146
Fluorescence intesity [10]: 272
Fluorescence intesity [11]: 40
Fluorescence intesity [12]: 49
Fluorescence intesity [13]: 0
Fluorescence intesity [14]: 20
Fluorescence intesity [15]: 91
Fluorescence intesity [16]: 70
Fluorescence intesity [17]: 38
Fluorescence intesity [18]: 114
Fluorescence intesity [19]: 133
Fluorescence intesity [20]: 237
Fluorescence intesity [21]: 24
Fluorescence intesity [22]: 282
Fluorescence intesity [23]: 37
Fluorescence intesity [24]: 29
Fluorescence intesity [25]: 67
Fluorescence intesity [26]: 72
Fluorescence intesity [27]: 53
Fluorescence intesity [28]: 297
Fluorescence intesity [29]: 67
Fluorescence intesity [30]: 0
Fluorescence intesity [31]: 331
Fluorescence intesity [32]: 0
Fluorescence intesity [33]: 0
Fluorescence intesity [34]: 454
Fluorescence intesity [35]: 246
Fluorescence intesity [36]: 106
Fluorescence intesity [37]: 0
Fluorescence intesity [38]: 115
Fluorescence intesity [39]: 431
Fluorescence intesity [40]: 30
Fluorescence intesity [41]: 29
Fluorescence intesity [42]: 2
Fluorescence intesity [43]: 286
Fluorescence intesity [44]: 43
Fluorescence intesity [45]: 126
Fluorescence intesity [46]: 0
Fluorescence intesity [47]: 20
Fluorescence intesity [48]: 106
Fluorescence intesity [49]: 51
Fluorescence intesity [50]: 109
Fluorescence intesity [51]: 55
Fluorescence intesity [52]: 925
Fluorescence intesity [53]: 15
Fluorescence intesity [54]: 30
Fluorescence intesity [55]: 84
Fluorescence intesity [56]: 14
Fluorescence intesity [57]: 25
Fluorescence intesity [58]: 41
Fluorescence intesity [59]: 33
Fluorescence intesity [60]: 22
Fluorescence intesity [61]: 134
Fluorescence intesity [62]: 193
Fluorescence intesity [63]: 65
Fluorescence intesity [64]: 62
Fluorescence intesity [65]: 70
Fluorescence intesity [66]: 90
Fluorescence intesity [67]: 25
Fluorescence intesity [68]: 19
Fluorescence intesity [69]: 75
Fluorescence intesity [70]: 1457
Fluorescence intesity [71]: 16
Fluorescence intesity [72]: 147
Fluorescence intesity [73]: 39
Fluorescence intesity [74]: 196
Fluorescence intesity [75]: 19
Fluorescence intesity [76]: 41
Fluorescence intesity [77]: 108
Fluorescence intesity [78]: 19
Fluorescence intesity [79]: 170
Fluorescence intesity [80]: 16
Fluorescence intesity [81]: 20
